# US6274590A, “Method of treating skin related conditions” (G. D. Searle & Co., priority 2000, dated 2001)
# Key:
# prostaglandin synthetase = details: U.S. Pat. No. 4,820,827; cited from earlier work
# [1] = reported in cited literature or patents; cited from earlier work
# COX II enzyme = details: J. Biol. Chem., 268, 6610 (1993); cited from earlier work
# [2] = system: carrageenan-induced hyperalgesic foot withdrawal; test: Rat Carrageenan-induced Analgesia Test; format: in vivo, rat (male Sprague-Dawley); details: oral, 3 h after carrageenan
# Method: (§1) The carrageenan foot edema test was performed with materials, reagents and procedures essentially as described by Winter, et al., (Proc. Soc. Exp. Biol. Med., 111, 544 (1962) Male Sprague-Dawlev rats were selected in each group so that the average body weight was as close as possible. Rats were fasted with free access to water for over sixteen hours prior to the test. The rats were dosed orally (1 mL) with compounds suspended in vehicle containing 0.5% methylcellulose and 0.025% surfactant, or with vehicle alone. one hour later a subplantar injection of 0.1 mL of 1% solution of carrageenan/sterile 0.9% saline was administered and the volume of the injected foot was measured with a displacement plethysmometer connected to a pressure transducer with a digital indicator. Three hours after the injection of the carrageenan, the volume of the foot was again measured. The average foot swelling in a group of drug-treated animals was compared with that of a group of placebo-treated animals and the percentage inhibition of edema was determined (Otterness and Bliven, Laboratory Models for Testing NSAIDs, in Non-steroidal Anti-Inflammatory Drugs, (J. Lombardino, ed. 1985)).
# The analgesia test using rat carrageenan was performed with materials, reagents and procedures essentially as described by Hargreaves, et al., (Pain, 32, 77 (1988)). Male Sprague-Dawley rats were treated as previously described, for the Carrageenan Foot Pad Edema test. Three hours after the injection of the carrageenan, the rats were placed in a special plexiglass container with a transparent floor having a high intensity lamp as a radiant heat source, positionable under the floor. After an initial twenty minute period, thermal stimulation was begun on either the injected foot or on the contralateral uninjected foot. […] The time until the rat withdraws its foot was then measured. The withdrawal latency in seconds was determined for the control and drug-treated groups, and percent inhibition of the hyperalgesic foot withdrawal determined.
# carrageenan foot edema = test: Rat Carrageenan Foot Pad Edema Test; format: in vivo, rat (male Sprague-Dawley); details: @ 10 mg/kg body weight, oral, 3 h after carrageenan
# Method: as §1
# Murine COX I = molecular target: T1, Murine COX I (Mus musculus, UniProt P22437); test: COX I activity in vitro (PGE2 ELISA, recombinant enzyme); format: biochemical; details: arachidonic acid 10 μM, read-out: Murine COX I ID50
# T1 construct: A 2.0 kb fragment containing the coding region; made in house; host or cells: SF9 insect cells (recombinant baculovirus, pVL1393)
# T1 sequence (P22437 27-602): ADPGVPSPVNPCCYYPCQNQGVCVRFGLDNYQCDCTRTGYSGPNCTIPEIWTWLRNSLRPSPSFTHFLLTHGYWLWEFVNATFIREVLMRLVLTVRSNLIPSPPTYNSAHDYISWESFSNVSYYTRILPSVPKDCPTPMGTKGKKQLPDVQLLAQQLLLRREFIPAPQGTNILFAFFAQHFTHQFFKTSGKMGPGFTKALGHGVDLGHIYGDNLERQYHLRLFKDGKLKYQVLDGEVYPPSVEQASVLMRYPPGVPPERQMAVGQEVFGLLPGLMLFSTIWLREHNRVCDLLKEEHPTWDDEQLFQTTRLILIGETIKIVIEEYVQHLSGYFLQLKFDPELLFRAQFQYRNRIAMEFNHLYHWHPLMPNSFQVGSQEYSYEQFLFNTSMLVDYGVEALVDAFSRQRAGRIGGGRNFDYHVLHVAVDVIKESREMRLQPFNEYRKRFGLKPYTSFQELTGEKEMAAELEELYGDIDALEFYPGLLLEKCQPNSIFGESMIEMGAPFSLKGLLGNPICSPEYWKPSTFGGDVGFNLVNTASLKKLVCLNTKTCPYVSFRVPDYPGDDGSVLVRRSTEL
# Method: (§2) A 2.0 kb fragment containing the coding region of either human or murine COX-I or human or murine COX-II was cloned into a BamH1 site of the baculovirus transfer vector pVL1393 to generate the baculovirus transfer vector. Recombinant baculoviruses were isolated by transfecting 4 μg of baculovirus transfer vector DNA into SF9 cells (2×10e8) along with 200 ng of linearized baculovirus plasmid DNA by the calcium phosphate method. Recombinant viruses were purified by three rounds of plaque purification and high titer (10E7-10E8 pfu/ml) stocks of virus were prepared. For large scale production, SF9 insect cells were infected in 10 liter fermentors (Bioprocess group) 0.5×10^6 /ml) with the recombinant baculovirus stock such that the multiplicity of infection was 0.1. […] The homogenate was centrifuged at 10,000×G for 30 minutes, and the resultant supernatant was stored at -80° C. before being assayed for COX activity.
# (§3) COX activity was assayed as PGE2 formed/μg protein/time using an ELISA to detect the prostaglandin released. CHAPS-solubilized insect cell membranes containing the appropriate COX enzyme were incubated in a potassium phosphate buffer (50 mM, pH 8.0) containing epinephrine, phenol, and heme with the addition of arachidonic acid (10 μM). […] The PGE2 formed was measured by standard ELISA technology (Cayman Chemical).
# Murine COX II = molecular target: T2, Murine COX II (Mus musculus, UniProt Q05769); test: COX II activity in vitro (PGE2 ELISA, recombinant enzyme); format: biochemical; details: arachidonic acid 10 μM, read-out: Murine COX II ID50
# T2 construct: A 2.0 kb fragment containing the coding region; made in house; host or cells: SF9 insect cells (recombinant baculovirus, pVL1393)
# T2 sequence (Q05769 18-604): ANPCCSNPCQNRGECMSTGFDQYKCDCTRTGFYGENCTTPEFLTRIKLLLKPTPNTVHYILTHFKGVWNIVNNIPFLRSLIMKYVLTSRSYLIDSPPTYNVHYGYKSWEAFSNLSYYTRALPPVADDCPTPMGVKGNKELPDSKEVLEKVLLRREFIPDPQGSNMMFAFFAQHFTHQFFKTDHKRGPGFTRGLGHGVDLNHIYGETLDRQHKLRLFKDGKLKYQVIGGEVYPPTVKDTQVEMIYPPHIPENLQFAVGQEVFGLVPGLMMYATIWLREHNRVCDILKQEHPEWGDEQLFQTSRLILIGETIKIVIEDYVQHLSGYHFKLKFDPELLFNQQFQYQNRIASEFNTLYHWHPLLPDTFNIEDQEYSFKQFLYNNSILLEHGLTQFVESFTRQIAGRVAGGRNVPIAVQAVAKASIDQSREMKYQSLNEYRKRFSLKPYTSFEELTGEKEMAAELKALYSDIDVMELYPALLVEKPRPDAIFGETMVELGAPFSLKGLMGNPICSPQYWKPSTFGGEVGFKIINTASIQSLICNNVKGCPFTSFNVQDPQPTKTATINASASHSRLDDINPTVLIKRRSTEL
# Method: as §2, §3
# [3] = Gen. Pharmac., 24, 105 (1993); cited from earlier work
structure (smiles),measurement,setting,value
CSc1ccc(-c2sc(Br)cc2-c2ccc(F)cc2)cc1 [5-bromo-2-(4-methylthiophenyl)-3-(4-fluorophenyl)thiophene],prostaglandin synthetase inhibitory activity,prostaglandin synthetase,prostaglandin synthetase inhibitory activity
same,antiinflammatory activity,[1],antiinflammatory
COc1ccc2cc(CC(=O)O)ccc2c1 [6-methoxy-2-napthylacetic acid],inhibition of the COX II enzyme,COX II enzyme,selectively inhibit the COX II enzyme
"CS(=O)(=O)c1ccc(-c2cscc2-c2ccc(F)cc2)cc1 [Example 1, 3-(4-Methylsulfonylphenyl)-4-(4-fluorophenyl)thiophene]",ANALGESIA % Inhibition,[2]; @ 20 mg/kg body weight,8%
"CS(=O)(=O)c1ccc(-c2csc(Br)c2-c2ccc(F)cc2)cc1 [Example 2, 4-(4-Methylsulfonylphenyl)-3-(4-fluorophenyl)-2-bromothiophene]",RAT PAW EDEMA % Inhibition,carrageenan foot edema,30%
same,ANALGESIA % Inhibition,[2]; @3 mpk,0%
"CS(=O)(=O)c1ccc(-c2c(Br)sc(Br)c2-c2ccc(F)cc2)cc1 [Example 3, 4-(4-Methylsulfonylphenyl)-3-(4-fluorophenyl)-2,5-dibromothiophene]",IC50,Murine COX I,100 µM
"COc1ccc(-c2cscc2-c2ccc(OC)cc2)cc1 [Example 4, 3,4-Bis(4-methoxyphenyl)thiophene]",RAT PAW EDEMA % Inhibition,carrageenan foot edema,22%
"CCOC(=O)c1sc(C(=O)O)c(-c2ccc(F)cc2)c1-c1ccc(S(C)(=O)=O)cc1 [Example 8, 2-Ethoxycarbonyl-4-(4-fluorophenyl)-3-(4-methanesulfonylphenyl)-thienyl-5-carboxylic acid]",IC50,Murine COX II,5.5 µM
same,IC50,Murine COX I,> 100 µM
CS(=O)(=O)c1ccc(-c2cscc2-c2ccc(F)nc2)cc1 [Example 14],RAT PAW EDEMA % Inhibition,carrageenan foot edema,30%
same,ANALGESIA % Inhibition,[2]; @ 20 mg/kg body weight,28%
Cc1cc(F)ccc1-c1cscc1-c1ccc(S(C)(=O)=O)cc1 [Example 15],RAT PAW EDEMA % Inhibition,carrageenan foot edema,20%
CS(=O)(=O)Nc1ccc([N+](=O)[O-])cc1OC1CCCCC1 [N-(2-cyclohexyloxy-4-nitrophenyl)methanesulfonamide],antiinflammatory activity,[1],antiinflammatory
same,gastric side effects,[3],lacks gastric side effects
"CCOC(=O)CCc1scc(-c2ccccc2)c1-c1ccccc1 [ethyl 3,4-diphenylthiophene-2-propionate]",antiinflammatory activity,[1],antiinflammatory activity
